These results are taken from patent publication US20260365611A1, “CRYSTALLINE SALTS OF 2-PHENYL-2-AMINOCYCLOHEXAN-1-ONE DERIVATIVES” (priority 2023, published 2026).

Holding throughout (type): physicochemical
Data set [1] in a line: Thermo-Gravimetric Analysis (TGA). The method, then: In the examples below, the solids are analyzed by XRPD to determine if they are crystalline and if so, by DSC to determine melting point and TGA to determine if hydrated/solvated.
Data set [2] is described as follows: Approximate solubility in 20 solvents. The conditions noted are these: for solubility: RT. The method, then: The approximate solubility of the crystalline hydrochloride salt product of Example 1 (1R HCl Form 1) was estimated in 20 solvents as follows: Approximately 10 mg of the product of Example 1 is placed into a 4.0 mL vial, to which 25 μL of solvent at RT is added, and then the vial with its contents is shaken and stirred. If no clear solution is obtained, another 25 μL of solvent is added to the vial and then the vial with its contents is shaken and stirred again. This process is repeated until 4.0 mL solvent is added, and then the contents of the vial are stirred overnight.

Data set [3] is described as follows: Sublimation on heating. The conditions noted are these: heated up to 300 °C. The method, then:
The Form 1 polymorph was heated up to 300 °C. […] Polymorph screening of the deuterated 1R HCl salt of Example 2 (Form 1).

Data set [4] can be described thus: Dynamic Vapor Sorption (DVS). The method, then: 1R HCl Form 1 was analyzed by DVS (0-90-O-90-0% RH at 25 °C). The DVS behavior is shown in FIGS. 5(a) and (b), wherein 1 plots cycle 1 desorption, 2 plots cycle 2 sorption, 3 plots cycle 2 desorption, 4 plots cycle 1 sorption, 5 plots target % P/Po and 6 plots dm dry line, wherein P is the vapor pressure, Po is the saturation vapor pressure and P/Po is equivalent to % relative humidity for water.

Data set [5] can be described thus: Crystal form conversion on drying. The method, then:
About 0.25 mL of ethyl acetate was added to a glass vial containing about 40 mg of freebase (R)-2-(4-fluorophenyl)-2-(methylamino)cyclohexan-1-one. One molar equivalent of citric acid was added to the vial, and the contents were stirred at room temperature.

Where [6] appears, read: drying in a vacuum oven at room temperature.

Counter-ions that a name gives are not always drawn. Like-named read-outs stand apart in the source and are kept apart here.

By solubility is commonly meant the concentration that dissolves in the medium under given conditions. Turning to `CN[C@@]1(c2ccc(F)cc2)CCCCC1=O` [1R HCl Form 1, (R)-2-(4-fluorophenyl)-2-(methylamino)cyclohexan-1-one hydrochloride Form 1], the “Hydrate/solvate state from TGA” value in data set [1] (heated from room temperature to 100 °C) was “not a hydrate or solvate”. Besides, the TGA weight loss in data set [1] (room temperature to 100 °C) turned out to be 0.34%. The solubility was 2.9 to 3.3 mg/mL in data set [2] (1,4-dioxane, organic solvent or mixture, 1,4-Dioxane, read-out: Solubility); < 2.6 mg/mL in data set [2] (2-methf, organic solvent or mixture, 2-MeTHF, read-out: Solubility); 194 to 388 mg/mL in data set [2] (DCM); 192 to 384 mg/mL in data set [2] (DMF); >395 mg/mL in data set [2] (DMSO); 215 to 431 mg/mL in data set [2] (EtOH). The solubility in data set [2] (MeOH) was >486 mg/mL; in data set [2] (Water), >464 mg/mL; in data set [2] (acetone, organic solvent or mixture, Acetone, read-out: Solubility), 8.8 to 9.7 mg/mL; in data set [2] (acn, organic solvent or mixture, ACN, read-out: Solubility) it was 32 to 38 mg/mL; in data set [2] (dcm, organic solvent or mixture, DCM, read-out: Solubility), > 300 mg/mL; in data set [2] (dmf, organic solvent or mixture, DMF, read-out: Solubility) it was > 300 mg/mL. The solubility in data set [2] (dmso, organic solvent or mixture, DMSO, read-out: Solubility) was > 300 mg/mL; in data set [2] (etoac, organic solvent or mixture, EtOAc, read-out: Solubility), < 2.6 mg/mL; in data set [2] (etoh, organic solvent or mixture, EtOH, read-out: Solubility), > 300 mg/mL; in data set [2] (heptane, organic solvent or mixture, Heptane, read-out: Solubility) it was < 2.7 mg/mL; in data set [2] (ipa, organic solvent or mixture, IPA, read-out: Solubility) it was 50 to 67 mg/mL; in data set [2] (ipac, read-out: Solubility), < 2.4 mg/mL. The solubility is 3.1 to 3.7 mg/mL in data set [2] (mek, read-out: Solubility); > 300 mg/mL in data set [2] (meoh, organic solvent or mixture, MeOH, read-out: Solubility); < 2.7 mg/mL in data set [2] (mibk, read-out: Solubility); < 2.5 mg/mL in data set [2] (mtbe, organic solvent or mixture, MTBE, read-out: Solubility); 51 to 69 mg/mL in data set [2] (npa, read-out: Solubility); < 3 mg/mL in data set [2] (thf, organic solvent or mixture, THF, read-out: Solubility). Besides, the solubility was < 2.7 mg/mL in data set [2] (toluene, organic solvent or mixture, Toluene, read-out: Solubility) and > 300 mg/mL in data set [2] (water, read-out: Solubility). Further, the “Solubility (in words)” value in data set [2] (esters, ketones, ethers, and alkanes) is given as “Limited or no solubility”. For the same compound, the Sublimation result in data set [3] is reported as “can be sublimed from a solid phase to gas phase without passing through the liquid phase”. For the same compound, in data set [3] (XRPD), the “Form of material recovered from sublimation” value is on record as “same XRPD pattern as 1R HCl Form 1”. Also, the “DVS moisture sorption behavior” value in data set [4] (25 °C, 0-90-0-90-0% RH) was “absorbs significant moisture above ~80% RH but readily releases the moisture at lower humidity”. The “Crystal form of post-DVS sample” value in data set [4] (post-DVS, kept at 0% RH for 3 days) is on record as “same crystal form as the starting solids”.

As to `CN[C@@]1(c2ccc(F)cc2)CCCCC1=O` [Cit-1, (R)-2-(4-fluorophenyl)-2-(methylamino)cyclohexan-1-one Cit-1], the Crystal form conversion result in data set [5] (setting [6]) is “transitioned to a different XRPD pattern”.

For the compound `CN[C@@]1(c2ccc(F)cc2)CCCCC1=O` [Cit-2, (R)-2-(4-fluorophenyl)-2-(methylamino)cyclohexan-1-one Cit-2], the TGA weight loss entry in data set [1] (room temperature to 100 °C) is reported as “about 1.33%”.

For `CN[C@@]1(c2ccc(F)cc2)CCCCC1=O` [Fum-1, (R)-2-(4-fluorophenyl)-2-(methylamino)cyclohexan-1-one Fum-1], the TGA weight loss result in data set [1] (by 100 °C) was “about 0.66%”.

Take `CN[C@@]1(c2ccc(F)cc2)CCCCC1=O` [Glyc-1, (R)-2-(4-fluorophenyl)-2-(methylamino)cyclohexan-1-one Glyc-1]: in data set [1] (room temperature to 100 °C), the TGA weight loss result was “about 1.89%”.

Take `CN[C@@]1(c2ccc(F)cc2)CCCCC1=O` [Hip-1, (R)-2-(4-fluorophenyl)-2-(methylamino)cyclohexan-1-one Hip-1]: in data set [1] (room temperature to 100 °C), the TGA weight loss entry was “about 0.69%”.

For `CN[C@@]1(c2ccc(F)cc2)CCCCC1=O` [MSA-1, (R)-2-(4-fluorophenyl)-2-(methylamino)cyclohexan-1-one MSA-1], the TGA weight loss result in data set [1] (by 100 °C) is “about 0.01%”.

On to `CN[C@@]1(c2ccc(F)cc2)CCCCC1=O` [Mal-1, (R)-2-(4-fluorophenyl)-2-(methylamino)cyclohexan-1-one Mal-1], for which, in data set [1] (by 100 °C), the TGA weight loss result is “about 0.16%”.

On to `CN[C@@]1(c2ccc(F)cc2)CCCCC1=O` [Mal-2, (R)-2-(4-fluorophenyl)-2-(methylamino)cyclohexan-1-one Mal-2], for which the TGA weight loss result in data set [1] (by 100 °C) was “about 0.11%”.

In the case of `CN[C@@]1(c2ccc(F)cc2)CCCCC1=O` [Mali-1, (R)-2-(4-fluorophenyl)-2-(methylamino)cyclohexan-1-one-L-Mali-1], the TGA weight loss entry in data set [1] (room temperature to 100 °C) was “about 0.70%”.

For `CN[C@@]1(c2ccc(F)cc2)CCCCC1=O` [Phos-1, (R)-2-(4-fluorophenyl)-2-(methylamino)cyclohexan-1-one Phos-1], the TGA weight loss entry in data set [1] (by 100 °C) was “about 0.11%”.

`CN[C@@]1(c2ccc(F)cc2)CCCCC1=O` [Phos-2, (R)-2-(4-fluorophenyl)-2-(methylamino)cyclohexan-1-one Phos-2]: in data set [1] (by 100 °C), the TGA weight loss entry is “about 0.90%”.

Consider `CN[C@@]1(c2ccc(F)cc2)CCCCC1=O` [Sulfate-1, (R)-2-(4-fluorophenyl)-2-(methylamino)cyclohexan-1-one Sulfate-1], for which, in data set [1] (by 100 °C, listed as sulfate salt), the TGA weight loss result is given as “about 0.08%”.

Take `CN[C@@]1(c2ccc(F)cc2)CCCCC1=O` [Sulfate-2, (R)-2-(4-fluorophenyl)-2-(methylamino)cyclohexan-1-one Sulfate-2]: the Crystal form conversion entry in data set [5] (wet cake dried at room temperature) is recorded as “a different XRPD diffractogram was obtained”.

On to `CN[C@@]1(c2ccc(F)cc2)CCCCC1=O` [Sulfate-3, (R)-2-(4-fluorophenyl)-2-(methylamino)cyclohexan-1-one Sulfate-3], for which, in data set [5] (further dried with heating at 40 °C), the Crystal form conversion entry is given as “a different XRPD diffractogram was obtained”.

As to `CN[C@@]1(c2ccc(F)cc2)CCCCC1=O` [Tar-2, (R)-2-(4-fluorophenyl)-2-(methylamino)cyclohexan-1-one Tar-2], the Crystal form conversion entry in data set [5] (setting [6]) is “transitioned into Tar-5”.

In the case of `CN[C@@]1(c2ccc(F)cc2)CCCCC1=O` [Tar-3, (R)-2-(4-fluorophenyl)-2-(methylamino)cyclohexan-1-one Tar-3], in data set [1] (room temperature to 125 °C), the TGA weight loss entry was “about 9.95%”.

On to `CN[C@@]1(c2ccc(F)cc2)CCCCC1=O` [Tar-4, (R)-2-(4-fluorophenyl)-2-(methylamino)cyclohexan-1-one Tar-4], for which, in data set [5] (setting [6]), the Crystal form conversion result is “converted into Tar-6”.

As for `CN[C@@]1(c2ccc(F)cc2)CCCCC1=O` [Tar-5, (R)-2-(4-fluorophenyl)-2-(methylamino)cyclohexan-1-one Tar-5], the TGA weight loss result in data set [1] (by 100 °C) is recorded as “about 0.26%”.

On to `CN[C@@]1(c2ccc(F)cc2)CCCCC1=O` [Tar-6, (R)-2-(4-fluorophenyl)-2-(methylamino)cyclohexan-1-one Tar-6], for which the TGA weight loss result in data set [1] (by 100 °C) is given as “about 10.67%”.
